Experiments:
[1] = molecular target: T1, FGF8b (Homo sapiens, UniProt P55075); assay: SPR analysis of peptide binding to immobilized FGF8b; set-up: purchased PeproTech; details: for Kd / FGF8b binding (Kd): SPR, immobilized FGF8b, mean ± SEM; for FGF8b binding activity (in words): SPR on the FGF8b-coated sensor chip
T1 sequence (P55075 23-215 isoform P55075-3 limits assumed): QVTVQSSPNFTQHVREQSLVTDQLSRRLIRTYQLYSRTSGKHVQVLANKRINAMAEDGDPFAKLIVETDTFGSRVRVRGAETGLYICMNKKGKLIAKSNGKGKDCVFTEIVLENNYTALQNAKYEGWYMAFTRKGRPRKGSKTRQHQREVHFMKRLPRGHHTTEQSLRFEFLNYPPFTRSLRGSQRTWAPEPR
Method: A BIAcore X-100 apparatus (BIAcore Inc., Piscataway, NJ, USA) was used to set up the following experimental models. ARPCA and all the peptides mentioned in the present work were analyzed for their capacity to directly bind to immobilized FGF8b. To this purpose, FGF8b (20 μg/ml in 10 mM sodium acetate, pH 6.0) was allowed to react with a flow cell of a CM5 sensor chip that was previously activated with a mixture of 0.2 M N-ethyl-N′-(3-dimethylaminopropyl)-carbodiimide hydrochloride and 0.05 M N-hydroxysuccinimide (35 μl, flow rate 10 μl/min). After ligand immobilization, matrix neutralization was performed with 1.0 M ethanolamine (pH 8.5) (35 μl, flow rate 10 μl/min) and the activated/deactivated dextran was used as reference (control) system. Increasing concentrations of ARPCA (ranging between 8 μM and 2000 μM) were injected over the FGF8b-coated sensor chip and the response was recorded as a function of time tracking the SPR intensity change upon binding progression. Injection lasted for 4 min (flow rate 30 μl/min) to allow peptide association to immobilized FGF8b and was followed by 10 min of dissociation; each run was performed in HBS and the sensor chip was regenerated with 10 mM NaOH. […] Binding isotherm points were fitted with the Langmuir equation for monovalent binding. This allowed to evaluate the mass surface dissociation constant, Kd, and the scaling parameter that relates the SPR signal with the extent of binding, as the free parameters of the fitting. The errors on these parameters were assigned as a result of the fitting algorithm (95% confidence bounds). The best-fitting procedure was performed with the SigmaPlot 11.0 software package (Systat Software Inc.). Others FGFs were dissolved in 10mM sodium acetate at optimal pH, immobilized on CM5 sensorchips and tested for their capacity to bind ARPCA as described above.

[2] = test system: S115 cells grafted onto the chick embryo CAM; assay: CAM assay with DHT-treated S115 cell grafts; assay type: in vivo; details: 2.5 × 10^4 cells/embryo; ARPCA 80 or 140 pmoles/embryo, ARPVA 140 pmoles/embryo; day 14
Method: (§1) Alginate plugs containing vehicle, FGF8b (4.5 pmoles/embryo), VEGF-A (4.5 pmoles/embryo) or S115 cells (2.5×10^4/embryo) in the absence or presence of ARPCA (80 or 140 pmoles/embryo) or ARPVA (140 pmoles/embryo) were placed on the CAM of fertilized white leghorn chicken eggs at day 11 of incubation. At day 14, newly formed blood microvessels converging toward the implant were counted by two observers in a double-blind fashion at 5x magnification under a stereomicroscope (STEMI-SR, x2/0.12; Zeiss) as described.

[3] = test system: HUVECs; assay: HUVEC proliferation in response to FGF8b; assay type: cell-based, human; details: 30 ng/ml FGF8b, 48 h, concentrations as high as 300 μM
Method: (§2) HUVECs were seeded at 18000 cells/cm^2 in medium containing 2.5% FBS and stimulated with 30 ng/ml FGF8b in the absence or presence of increasing concentrations of ARPCA or ARPVA. S115 cells were seeded at 15000 cells/cm^2 in medium containing 4% hormone-deprived dextran-coated charcoal-stripped heat inactivated FBS, followed by 24 h serum starvation in 1:1 mixture of serum-free Ham's F12 and DMEM. Cells were stimulated for 48 h with 30 ng/ml FGF8b or 10 nM DHT in the presence or absence of different concentrations of ARPCA or ARPVA (as specified in the corresponding figures). Viable cell counts were obtained by the counting function of the MACSQuant® Analyzer (Miltenyi Biotec, Bergisch-Gladbach, Germany, EU).

[4] = test system: chick embryo chorioallantoic membrane (CAM); assay: Chick embryo CAM assay with growth factor alginate implants; assay type: in vivo; details: 4.5 pmoles FGF8b/plug; ARPCA 80 or 140 pmoles, ARPVA 140 pmoles; vessels counted at day 14
Method: as §1

[5] = test system: S115 cells; assay: S115 cell proliferation assay; assay type: cell-based, mouse; details: 30 ng/ml FGF8b or 10 nM DHT, 48 h, viable cell counting
Method: as §2

Substance | Kd [1] | FGF8b binding activity (in words) [1] | further results
Ac-ARPMA-NH2 [Ac-ARPMA-NH2] | > 3 mM | activity was lost | –
Ac-ARPSA-NH2 [Ac-ARPSA-NH2] | – | activity was lost | FGF8b binding (Kd) [1]: nb
Ac-ARPVA-NH2 [Cys4-replaced ARPCA pentapeptide mutant used as a negative control, reference compound] | – | activity was lost | neovascular response elicited by DHT-pretreated S115 cells on the CAM [2]: no effect; effect on HUVEC proliferation in response to FGF8b (in words) [3]: no significant effect; angiogenic response elicited by FGF8b in the CAM [4]: No inhibitory effect; FGF8b binding (Kd) [1]: nb; mitogenic response of S115 cells to FGF8b or DHT [5]: ineffective
Ac-GRPCG-NH2 [Ac-GRPCG-NH2] | > 3 mM | dramatically reduced | –

Continued, in another order:

Kd [1] | FGF8b binding activity (in words) [1] | Substance | further results
> 3 mM | – | Ac-APCRA-NH2 [Ac-APCRA-NH2] | –
> 3 mM | activity was lost | Ac-ARACA-NH2 [Ac-ARACA-NH2] | –
> 3 mM | activity was lost | Ac-ARGCA-NH2 [Ac-ARGCA-NH2] | –
1.9 ± 0.2 mM | dramatically reduced | Ac-ARPCG-NH2 [Ac-ARPCG-NH2] | –
2.9 ± 0.55 mM | dramatically reduced | H-ARPCA-NH2 [H-ARPCA-NH2] | –
